Measurements published in the supplement of paper PMC10307832.

How the values were obtained:
Experiment in all cases: relative viability (nuclei count vs DMSO), 5 days (fraction); higher = more cells survive
KIN001-266 + Linsitinib = compound: CCN1CCC(CC1)N2C=C(N=N2)CNC3=CC4=C(C(=CN=C4C(=C3)Cl)C#N)NC5=CC(=C(C=C5)F)Cl [KIN001-266] + C[C@]1(O)C[C@@H](c2nc(-c3ccc4ccc(-c5ccccc5)nc4c3)c3c(N)nccn32)C1 [Linsitinib] (partner 1 µM)
Procedure, shortened: (§1)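 Lung cancer cell lines, seeded in 1536-well plates, were treated the following day by pin tool with a single drug or with five library-drug doses (not always all listed) in √10 steps on top of a fixed anchor-drug dose. Cells were fixed and nuclei stained in one step after 5 days, and nuclei were counted. Relative viability is the nuclei count for treated wells divided by that for vehicle wells, reported as medians of duplicate plates.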

KIN001-266 + Navitoclax = compound: CCN1CCC(CC1)N2C=C(N=N2)CNC3=CC4=C(C(=CN=C4C(=C3)Cl)C#N)NC5=CC(=C(C=C5)F)Cl [KIN001-266] + CC1(C)CCC(c2ccc(Cl)cc2)=C(CN2CCN(c3ccc(C(=O)NS(=O)(=O)c4ccc(N[C@H](CCN5CCOCC5)CSc5ccccc5)c(S(=O)(=O)C(F)(F)F)c4)cc3)CC2)C1 [Navitoclax] (partner 0.5 µM)
Procedure, shortened: as §1

KIN001-266 + Luminespib = compound: CCN1CCC(CC1)N2C=C(N=N2)CNC3=CC4=C(C(=CN=C4C(=C3)Cl)C#N)NC5=CC(=C(C=C5)F)Cl [KIN001-266] + CCNC(=O)c1noc(-c2cc(C(C)C)c(O)cc2O)c1-c1ccc(CN2CCOCC2)cc1 [Luminespib] (partner 0.01 µM)
Procedure, shortened: as §1

KIN001-266 + Foretinib = compound: CCN1CCC(CC1)N2C=C(N=N2)CNC3=CC4=C(C(=CN=C4C(=C3)Cl)C#N)NC5=CC(=C(C=C5)F)Cl [KIN001-266] + COc1cc2c(Oc3ccc(NC(=O)C4(C(=O)Nc5ccc(F)cc5)CC4)cc3F)ccnc2cc1OCCCN1CCOCC1 [Foretinib] (partner 0.25 µM)
Procedure, shortened: as §1

Cell Line: COR-L 105
- relative viability (KIN001-266 + Linsitinib; first compound 0.08 µM): 0.974
- relative viability (KIN001-266 + Linsitinib; first compound 0.253 µM): 0.932
- relative viability (KIN001-266 + Linsitinib; first compound 0.8 µM): 0.991
- relative viability (KIN001-266 + Linsitinib; first compound 2.53 µM): 0.93
- relative viability (KIN001-266 + Linsitinib; first compound 8 µM): 0.846
- relative viability (KIN001-266 + Navitoclax; first compound 0.08 µM): 0.725
- relative viability (KIN001-266 + Navitoclax; first compound 0.253 µM): 0.681
- relative viability (KIN001-266 + Navitoclax; first compound 0.8 µM): 0.805
- relative viability (KIN001-266 + Navitoclax; first compound 2.53 µM): 0.946
- relative viability (KIN001-266 + Navitoclax; first compound 8 µM): 0.817
- relative viability (KIN001-266 + Luminespib; first compound 0.08 µM): 0.616
- relative viability (KIN001-266 + Luminespib; first compound 0.253 µM): 0.802
- relative viability (KIN001-266 + Luminespib; first compound 0.8 µM): 0.758
- relative viability (KIN001-266 + Luminespib; first compound 2.53 µM): 0.743
- relative viability (KIN001-266 + Luminespib; first compound 8 µM): 1.02
- relative viability (KIN001-266 + Foretinib; first compound 0.08 µM): 0.795
- relative viability (KIN001-266 + Foretinib; first compound 0.253 µM): 1.09
- relative viability (KIN001-266 + Foretinib; first compound 0.8 µM): 0.92
- relative viability (KIN001-266 + Foretinib; first compound 2.53 µM): 0.915
- relative viability (KIN001-266 + Foretinib; first compound 8 µM): 0.758

Cell Line: Calu-6
- relative viability (KIN001-266 + Linsitinib; first compound 0.08 µM): 1.03
- relative viability (KIN001-266 + Linsitinib; first compound 0.253 µM): 0.978
- relative viability (KIN001-266 + Linsitinib; first compound 0.8 µM): 0.955
- relative viability (KIN001-266 + Linsitinib; first compound 2.53 µM): 0.943
- relative viability (KIN001-266 + Linsitinib; first compound 8 µM): 0.836
- relative viability (KIN001-266 + Navitoclax; first compound 0.08 µM): 0.868
- relative viability (KIN001-266 + Navitoclax; first compound 0.253 µM): 0.877
- relative viability (KIN001-266 + Navitoclax; first compound 0.8 µM): 0.859
- relative viability (KIN001-266 + Navitoclax; first compound 2.53 µM): 0.64
- relative viability (KIN001-266 + Navitoclax; first compound 8 µM): 0.437
- relative viability (KIN001-266 + Foretinib; first compound 0.08 µM): 0.921
- relative viability (KIN001-266 + Foretinib; first compound 0.253 µM): 0.861
- relative viability (KIN001-266 + Foretinib; first compound 0.8 µM): 0.925
- relative viability (KIN001-266 + Foretinib; first compound 2.53 µM): 0.917
- relative viability (KIN001-266 + Foretinib; first compound 8 µM): 0.609

Cell Line: ChaGo-K-1
- relative viability (KIN001-266 + Navitoclax; first compound 0.08 µM): 1.27
- relative viability (KIN001-266 + Navitoclax; first compound 0.253 µM): 1.12
- relative viability (KIN001-266 + Navitoclax; first compound 2.53 µM): 1.1
- relative viability (KIN001-266 + Navitoclax; first compound 8 µM): 1.14
- relative viability (KIN001-266 + Luminespib; first compound 0.08 µM): 0.689
- relative viability (KIN001-266 + Luminespib; first compound 0.253 µM): 0.741
- relative viability (KIN001-266 + Luminespib; first compound 0.8 µM): 0.385
- relative viability (KIN001-266 + Luminespib; first compound 2.53 µM): 0.57
- relative viability (KIN001-266 + Luminespib; first compound 8 µM): 0.327
- relative viability (KIN001-266 + Foretinib; first compound 0.08 µM): 0.904
- relative viability (KIN001-266 + Foretinib; first compound 0.253 µM): 0.989
- relative viability (KIN001-266 + Foretinib; first compound 0.8 µM): 0.756
- relative viability (KIN001-266 + Foretinib; first compound 2.53 µM): 0.793
- relative viability (KIN001-266 + Foretinib; first compound 8 µM): 0.871

Cell Line: EKVX
- relative viability (KIN001-266 + Linsitinib; first compound 0.08 µM): 1.01
- relative viability (KIN001-266 + Linsitinib; first compound 0.253 µM): 0.956
- relative viability (KIN001-266 + Linsitinib; first compound 0.8 µM): 1.04
- relative viability (KIN001-266 + Linsitinib; first compound 2.53 µM): 0.963
- relative viability (KIN001-266 + Linsitinib; first compound 8 µM): 1.04
- relative viability (KIN001-266 + Navitoclax; first compound 0.08 µM): 1.08
- relative viability (KIN001-266 + Navitoclax; first compound 0.253 µM): 0.822
- relative viability (KIN001-266 + Navitoclax; first compound 0.8 µM): 0.925
- relative viability (KIN001-266 + Navitoclax; first compound 2.53 µM): 0.975
- relative viability (KIN001-266 + Navitoclax; first compound 8 µM): 0.876
- relative viability (KIN001-266 + Luminespib; first compound 0.08 µM): 0.86
- relative viability (KIN001-266 + Luminespib; first compound 0.253 µM): 0.869
- relative viability (KIN001-266 + Luminespib; first compound 0.8 µM): 0.735
- relative viability (KIN001-266 + Luminespib; first compound 2.53 µM): 0.89
- relative viability (KIN001-266 + Luminespib; first compound 8 µM): 0.986
- relative viability (KIN001-266 + Foretinib; first compound 0.08 µM): 0.858
- relative viability (KIN001-266 + Foretinib; first compound 0.253 µM): 0.744
- relative viability (KIN001-266 + Foretinib; first compound 0.8 µM): 0.642
- relative viability (KIN001-266 + Foretinib; first compound 2.53 µM): 0.781
- relative viability (KIN001-266 + Foretinib; first compound 8 µM): 0.624

Cell Line: EMC-BAC-2
- relative viability (KIN001-266 + Linsitinib; first compound 0.08 µM): 0.781
- relative viability (KIN001-266 + Linsitinib; first compound 0.253 µM): 0.792
- relative viability (KIN001-266 + Linsitinib; first compound 0.8 µM): 0.877
- relative viability (KIN001-266 + Linsitinib; first compound 2.53 µM): 0.86
- relative viability (KIN001-266 + Linsitinib; first compound 8 µM): 0.862
- relative viability (KIN001-266 + Navitoclax; first compound 0.08 µM): 1.15
- relative viability (KIN001-266 + Navitoclax; first compound 0.253 µM): 1.1
- relative viability (KIN001-266 + Navitoclax; first compound 0.8 µM): 1.08
- relative viability (KIN001-266 + Navitoclax; first compound 2.53 µM): 1.16
- relative viability (KIN001-266 + Navitoclax; first compound 8 µM): 1.22
- relative viability (KIN001-266 + Luminespib; first compound 0.08 µM): 1.27
- relative viability (KIN001-266 + Luminespib; first compound 0.253 µM): 1.25
- relative viability (KIN001-266 + Luminespib; first compound 0.8 µM): 1.11
- relative viability (KIN001-266 + Luminespib; first compound 2.53 µM): 1.18
- relative viability (KIN001-266 + Luminespib; first compound 8 µM): 1.25
- relative viability (KIN001-266 + Foretinib; first compound 0.08 µM): 1.13
- relative viability (KIN001-266 + Foretinib; first compound 0.253 µM): 1.09
- relative viability (KIN001-266 + Foretinib; first compound 0.8 µM): 0.972
- relative viability (KIN001-266 + Foretinib; first compound 2.53 µM): 1.03
- relative viability (KIN001-266 + Foretinib; first compound 8 µM): 1

Cell Line: EPLC-272H
- relative viability (KIN001-266 + Linsitinib; first compound 0.08 µM): 1.26
- relative viability (KIN001-266 + Linsitinib; first compound 0.253 µM): 1.34
- relative viability (KIN001-266 + Linsitinib; first compound 0.8 µM): 0.842
- relative viability (KIN001-266 + Linsitinib; first compound 2.53 µM): 1.15
- relative viability (KIN001-266 + Linsitinib; first compound 8 µM): 1.16
- relative viability (KIN001-266 + Navitoclax; first compound 0.08 µM): 1.16
- relative viability (KIN001-266 + Navitoclax; first compound 0.253 µM): 1.42
- relative viability (KIN001-266 + Navitoclax; first compound 0.8 µM): 0.966
- relative viability (KIN001-266 + Navitoclax; first compound 2.53 µM): 1.11
- relative viability (KIN001-266 + Navitoclax; first compound 8 µM): 0.763
- relative viability (KIN001-266 + Luminespib; first compound 0.08 µM): 0.253
- relative viability (KIN001-266 + Luminespib; first compound 0.253 µM): 0.268
- relative viability (KIN001-266 + Luminespib; first compound 0.8 µM): 0.323
- relative viability (KIN001-266 + Luminespib; first compound 2.53 µM): 0.181
- relative viability (KIN001-266 + Luminespib; first compound 8 µM): 0.176
- relative viability (KIN001-266 + Foretinib; first compound 0.08 µM): 0.777
- relative viability (KIN001-266 + Foretinib; first compound 0.253 µM): 0.763
- relative viability (KIN001-266 + Foretinib; first compound 0.8 µM): 0.728
- relative viability (KIN001-266 + Foretinib; first compound 2.53 µM): 0.636
- relative viability (KIN001-266 + Foretinib; first compound 8 µM): 0.208

Cell Line: H3255
- relative viability (KIN001-266 + Linsitinib; first compound 0.08 µM): 0.841
- relative viability (KIN001-266 + Linsitinib; first compound 0.253 µM): 1.03
- relative viability (KIN001-266 + Linsitinib; first compound 0.8 µM): 0.884
- relative viability (KIN001-266 + Linsitinib; first compound 2.53 µM): 0.841
- relative viability (KIN001-266 + Linsitinib; first compound 8 µM): 0.713
- relative viability (KIN001-266 + Navitoclax; first compound 0.08 µM): 0.689
- relative viability (KIN001-266 + Navitoclax; first compound 0.253 µM): 0.566
- relative viability (KIN001-266 + Navitoclax; first compound 0.8 µM): 0.494
- relative viability (KIN001-266 + Navitoclax; first compound 2.53 µM): 0.482
- relative viability (KIN001-266 + Navitoclax; first compound 8 µM): 0.615
- relative viability (KIN001-266 + Luminespib; first compound 0.08 µM): 0.909
- relative viability (KIN001-266 + Luminespib; first compound 0.253 µM): 0.945
- relative viability (KIN001-266 + Luminespib; first compound 0.8 µM): 0.935
- relative viability (KIN001-266 + Luminespib; first compound 2.53 µM): 0.847
- relative viability (KIN001-266 + Luminespib; first compound 8 µM): 0.912
- relative viability (KIN001-266 + Foretinib; first compound 0.08 µM): 0.801
- relative viability (KIN001-266 + Foretinib; first compound 0.253 µM): 0.862
- relative viability (KIN001-266 + Foretinib; first compound 0.8 µM): 0.797
- relative viability (KIN001-266 + Foretinib; first compound 2.53 µM): 0.957
- relative viability (KIN001-266 + Foretinib; first compound 8 µM): 0.725
